Patent publication US7465401B2, “Treatment of chloraminated water” (Water Corporation, priority 2003, dated 2008)

Tests used:
[1] = test system: ammonia oxidising bacteria, cultured from a chloraminated system; assay: Ammonia level over days in a dechlorinated chloraminated water sample dosed with ammonia and ammonia oxidising bacteria; assay type: cell-based
Procedure: After the elimination of chlorine, a chloraminated water bulk sample was dosed with excess ammonia to achieve 1.50 mg/L ammonia-N concentration. The bulk sample was dosed with ammonia oxidising bacteria, cultured from a chloraminated system.
The bulk sample was then subsampled into 9 separate portions. These portions were dosed as follows: • 1. no dosage • 2. 0.1 mg/L copper • 3. 0.2 mg/L copper • 4. 0.3 mg/L copper • 5. 0.2 mg/L zinc • 6. 0.4 mg/L zinc • 7. 0.2 mg/L copper, 0.1 mg/L zinc • 8. 0.1 mg/L copper, 0.2 mg/L zinc • 9. 0.2 mg/L copper, 0.4 mg/L zinc.
The samples were measured over subsequent days to determine the ammonia levels.

nitrification = assay: Field trial: covered reservoir dosed with copper sulphate; ammonia, nitrite and nitrate measured at inlet and outlet; conditions: copper about 0.25 mg/L for six weeks
Procedure: The levels of ammonia, nitrite and nitrate were measured both at reservoir inlet and outlet.

[2] = 0.1 mg/L copper, 1.50 mg/L ammonia-N at start
[3] = 0.2 mg/L copper, 1.50 mg/L ammonia-N at start
[4] = 0.3 mg/L copper, 1.50 mg/L ammonia-N at start

Row | SMILES | effect of zinc on the efficacy of the copper dose ([1]; zinc 0.1-0.4 mg/L in conjunction with copper 0.1-0.2 mg/L) | time after which the ammonia level begins to fall [1, 2] | time to fall to the base ammonia level of about 0.1 mg/L [1, 2] [days] | time the ammonia level was maintained [1, 3] | time to reach the base ammonia level [1, 3] [days] | time the ammonia level was maintained [1, 4] [days] | time to reach the base ammonia level [1, 4] [days] | microbiological activity following dosing (nitrification) | nitrate and nitrite levels at reservoir outlet (nitrification; detention period 3.5 days) | percentage of ammonia surviving from inlet to outlet (nitrification; detention period 3.5 days)
1 | [Zn] [zinc] | decrease the efficacy of the copper dose | – | – | – | – | – | – | – | – | –
2 | [Cu] [copper] | – | about seven | ~12 | about 15 days | 19 | 34 | 40 | significant reduction | substantial reduction | substantial increase
